Data: ChEMBL document CHEMBL1146824, “Synthesis and evaluation of indenopyrazoles as cyclin-dependent kinase inhibitors. Part 4: Heterocycles at C3” (Bioorg Med Chem Lett, 2004)

Columns and labels:
[1] = molecular target: Cyclin-dependent kinase 4/cyclin D1 (Homo sapiens, UniProt P11802); test: Binding affinity for Cyclin-dependent kinase 4-cyclin D1; assay type: protein-complex assay
HCT-116 [2] = test: Inhibition of HCT116 cellular proliferation; assay type: functional, cell-based; conditions: Homo sapiens
[3] = Binding affinity for Cyclin-dependent kinase 4-cyclin E
HCT-116 [4] = test: Inhibition of HCT116 cell proliferation in the presence of human serum albumin and alpha-1-acidglycoprotein; assay type: functional, cell-based
AG1523 [5] = test: Inhibition of proliferation AG1523 (human fibroblast) cell line.; assay type: functional, cell-based
HCT-116 [6] = test: Inhibition of cellular proliferation of HCT116 cell line in the presence of human serum albumin and alpha-1-acidglycoprotein; assay type: functional, cell-based
[7] = molecular target: Cyclin-dependent kinase 2/cyclin A (Homo sapiens, UniProt P24941); test: Inhibition of Cyclin-dependent kinase 2-cyclin A; assay type: protein-complex assay
[8] = molecular target: Tyrosine-protein kinase ABL1 (Homo sapiens, UniProt P00519); test: Inhibition of c-Abl tyrosine kinase
Chain of Tyrosine-protein kinase ABL1 (P00519 whole entry): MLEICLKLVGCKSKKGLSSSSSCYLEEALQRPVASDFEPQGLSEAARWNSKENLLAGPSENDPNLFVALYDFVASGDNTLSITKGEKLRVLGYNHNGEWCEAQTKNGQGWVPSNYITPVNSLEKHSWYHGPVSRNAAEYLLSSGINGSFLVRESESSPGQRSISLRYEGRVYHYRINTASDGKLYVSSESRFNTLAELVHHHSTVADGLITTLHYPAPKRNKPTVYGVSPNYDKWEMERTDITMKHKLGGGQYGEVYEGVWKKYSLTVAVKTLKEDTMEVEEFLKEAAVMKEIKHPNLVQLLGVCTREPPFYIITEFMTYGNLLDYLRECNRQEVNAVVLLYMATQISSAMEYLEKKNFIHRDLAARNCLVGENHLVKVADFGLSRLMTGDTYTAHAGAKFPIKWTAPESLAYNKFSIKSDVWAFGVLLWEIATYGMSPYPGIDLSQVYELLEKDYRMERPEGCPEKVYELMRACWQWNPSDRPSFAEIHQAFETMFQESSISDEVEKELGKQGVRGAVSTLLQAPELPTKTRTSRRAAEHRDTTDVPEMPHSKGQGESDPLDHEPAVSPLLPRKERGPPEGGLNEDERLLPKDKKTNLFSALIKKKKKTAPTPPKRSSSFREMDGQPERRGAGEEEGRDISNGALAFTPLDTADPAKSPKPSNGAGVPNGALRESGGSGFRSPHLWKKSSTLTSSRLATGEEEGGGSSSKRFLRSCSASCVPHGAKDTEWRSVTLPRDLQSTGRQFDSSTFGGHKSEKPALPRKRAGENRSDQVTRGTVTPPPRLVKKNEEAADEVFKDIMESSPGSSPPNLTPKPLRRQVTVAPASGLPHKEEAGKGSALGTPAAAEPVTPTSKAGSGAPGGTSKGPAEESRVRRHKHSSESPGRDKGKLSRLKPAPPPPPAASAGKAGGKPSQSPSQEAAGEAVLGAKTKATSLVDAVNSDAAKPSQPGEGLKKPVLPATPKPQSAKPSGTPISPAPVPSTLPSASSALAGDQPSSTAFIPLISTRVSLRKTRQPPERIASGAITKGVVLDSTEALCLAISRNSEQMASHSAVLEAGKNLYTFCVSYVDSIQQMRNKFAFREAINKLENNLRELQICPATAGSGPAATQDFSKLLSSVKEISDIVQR

[9] = molecular target: Cyclin-dependent kinase 1/cyclin B (Homo sapiens, UniProt P06493); test: Inhibition of cyclin-dependent kinase 1-cyclin B; assay type: protein-complex assay
MCF7 = test: Inhibition of MCF-7 cell proliferation; assay type: functional, cell-based; conditions: Homo sapiens
NCI-H460 = test: Inhibition of NCI-H460 cell proliferation; assay type: functional, cell-based; conditions: Homo sapiens
B16 = test: Inhibition of B16-F1 cell proliferation; assay type: functional, cell-based; conditions: Mus musculus
[10] = molecular target: cAMP-dependent protein kinase (PKA) (Homo sapiens, UniProt P22694+P17612+P22612); test: Inhibition of protein kinase A; assay type: protein assay
HMEC = test: Inhibition of HMEC cell proliferation; assay type: functional, cell-based; conditions: Homo sapiens
NCI-H358 = test: Inhibition of NCI-H358 cell proliferation; assay type: functional, cell-based; conditions: Homo sapiens
SKUT-1A = test: Inhibition of Skut 1A cell proliferation; assay type: functional, cell-based; conditions: Homo sapiens
HT-29 = test: Inhibition of HT-29 cell proliferation; assay type: functional, cell-based; conditions: Homo sapiens
MIA PaCa-2 = test: Inhibition of MiaPaCa2 cell proliferation; assay type: functional, cell-based; conditions: Homo sapiens
AG1523 [11] = test: Inhibition of AG1523 (arrested) cell proliferation; assay type: functional, cell-based; conditions: Homo sapiens
PC-3 = test: Inhibition of PC3 cell proliferation; assay type: functional, cell-based; conditions: Homo sapiens
L1210 = test: Inhibition of L1210 cell proliferation; assay type: functional, cell-based; conditions: Mus musculus
HT-1080 = test: Inhibition of HT1080 cell proliferation; assay type: functional, cell-based; conditions: Homo sapiens
NCI-H1299 = test: Inhibition of H1299 cell proliferation; assay type: functional, cell-based; conditions: Homo sapiens

Chain of Cyclin-dependent kinase 4/cyclin D1 (P11802 whole entry): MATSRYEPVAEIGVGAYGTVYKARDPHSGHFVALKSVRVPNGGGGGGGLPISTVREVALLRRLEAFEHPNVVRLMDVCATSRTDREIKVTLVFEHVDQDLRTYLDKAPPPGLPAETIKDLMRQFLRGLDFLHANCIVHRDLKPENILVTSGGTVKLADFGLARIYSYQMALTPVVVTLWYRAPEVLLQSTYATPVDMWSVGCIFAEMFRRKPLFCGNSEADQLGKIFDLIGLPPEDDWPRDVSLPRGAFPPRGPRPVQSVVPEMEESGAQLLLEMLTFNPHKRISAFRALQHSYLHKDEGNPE
Chain of Cyclin-dependent kinase 4/cyclin D1 (P24385 whole entry, further chain): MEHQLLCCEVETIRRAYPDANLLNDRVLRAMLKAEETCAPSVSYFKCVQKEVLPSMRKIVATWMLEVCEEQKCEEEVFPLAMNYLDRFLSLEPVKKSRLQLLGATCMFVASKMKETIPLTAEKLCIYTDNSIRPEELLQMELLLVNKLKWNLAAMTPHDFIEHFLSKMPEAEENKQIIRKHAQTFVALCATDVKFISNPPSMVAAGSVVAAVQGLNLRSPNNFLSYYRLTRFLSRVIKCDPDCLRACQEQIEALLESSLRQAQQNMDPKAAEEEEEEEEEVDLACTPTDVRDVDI

| SMILES | IC50 [1] [nM] | IC50 (HCT-116 [2]) [nM] | IC50 [3] [nM] | IC50 (AG1523 [5]) [nM] | also measured |
| --- | --- | --- | --- | --- | --- |
| Cc1nc(C)c(-c2[nH]nc3c2C(=O)c2c(NC(=O)NN4CCOCC4)cccc2-3)s1 | > 370 | 8 | 9 | > 19000 | IC50 (HCT-116 [4]): 500 nM |
| CN(C)NC(=O)Nc1cccc2c1C(=O)c1c(-c3ccco3)n[nH]c1-2 | 635 | 160 | 26 | – | – |
| CN(C)NC(=O)Nc1cccc2c1C(=O)c1c(-c3ccsc3)n[nH]c1-2 | 107 | 68 | 24 | 605 | – |
| Cc1cc(-c2n[nH]c3c2C(=O)c2c(NC(=O)NN4CCN(C)CC4)cccc2-3)c(C)s1 | 90 | 24 | 12 | 205 | – |
| Cc1cc(-c2n[nH]c3c2C(=O)c2c(NC(=O)NN(C)C)cccc2-3)c(C)s1 | 515 | 110 | 26 | 1500 | – |
| NC1CCN(C(=O)c2ccc(-c3[nH]nc4c3C(=O)c3c(NC(=O)NN5CCOCC5)cccc3-4)s2)C1 (configuration not stated) | 35 | > 800 | 39 | – | – |
| CCOC(=O)c1ccc(-c2[nH]nc3c2C(=O)c2c(NC(=O)NN4CCN(C)CC4)cccc2-3)s1 | 30 | 46 | 36 | – | – |
| CN(C)NC(=O)Nc1cccc2c1C(=O)c1c(-c3cccs3)n[nH]c1-2 | 340 | 75 | 36 | 905 | – |
| Cc1ccc(-c2n[nH]c3c2C(=O)c2c(NC(=O)NN(C)C)cccc2-3)s1 | 81 | 48 | 25 | 640 | – |
| CCOC(=O)c1ccc(-c2[nH]nc3c2C(=O)c2c(NC(=O)NN(C)C)cccc2-3)s1 | 185 | 380 | 28 | 2800 | – |
| O=C(Nc1cccc2c1C(=O)c1c(-c3ccc(C(=O)NCCN4CCOCC4)s3)n[nH]c1-2)NN1CCOCC1 | 86 | 860 | 51 | – | – |
| CCOC(=O)c1ccc(-c2[nH]nc3c2C(=O)c2c(NC(=O)NN4CCOCC4)cccc2-3)s1 | 30 | 110 | 31 | > 17000 | IC50 (HCT-116 [4]): 3200 nM |
| Cc1nc(C)c(-c2n[nH]c3c2C(=O)c2c(NC(=O)NN(C)C)cccc2-3)s1 | 150 | – | 4 | – | – |
| Cc1cc(-c2[nH]nc3c2C(=O)c2c(NC(=O)NN4CCOCC4)cccc2-3)c(C)s1 | 125 | 25 | < 8 | 345 | – |
| O=C(Nc1cccc2c1C(=O)c1c(-c3ccc(C(=O)NCCN4CCCC4)s3)n[nH]c1-2)NN1CCOCC1 | 23 | 475 | 25 | 680 | – |
| Cc1nc(C)c(-c2[nH]nc3c2C(=O)c2c(NC(=O)NN4CCN(C)CC4)cccc2-3)s1 | 46 | 14 | – | > 21000 | IC50 [7]: 13 nM; IC50 [8]: 17600 nM; IC50 (HCT-116 [4]): 260 nM; IC50 [9]: 6 nM; IC50 (MCF7): 23 nM; IC50 (NCI-H460): 104 nM; IC50 (B16): 160 nM; IC50 [10]: > 42000 nM; IC50 (HMEC): 55 nM; IC50 (NCI-H358): 18 nM; IC50 (SKUT-1A): 25 nM; IC50 (HT-29): 87 nM; IC50 (MIA PaCa-2): 26 nM; IC50 (AG1523 [11]): > 21000 nM; IC50 (PC-3): 125 nM; IC50 (L1210): 105 nM; IC50 (HT-1080): 30 nM; IC50 (NCI-H1299): 12 nM |
| COc1ccc(-c2[nH]nc3c2C(=O)c2c(NC(=O)NN(C)C)cccc2-3)s1 | 84 | 130 | 32 | 1550 | – |
| Cc1ccc(-c2[nH]nc3c2C(=O)c2c(NC(=O)NN4CCOCC4)cccc2-3)s1 | 23 | 25 | 10 | 285 | – |

Stronger by IC50 [1], values ahead:

| IC50 [1] [nM] | IC50 (HCT-116 [2]) [nM] | IC50 [3] [nM] | SMILES | IC50 (AG1523 [5]) [nM] | also measured |
| --- | --- | --- | --- | --- | --- |
| 15 | > 800 | 21 | CN(C)CCNC(=O)c1ccc(-c2[nH]nc3c2C(=O)c2c(NC(=O)NN4CCOCC4)cccc2-3)s1 | – | – |
| 7 | 33 | 14 | CCN1CCCN(C(=O)c2ccc(-c3[nH]nc4c3C(=O)c3c(NC(=O)NN5CCOCC5)cccc3-4)s2)CC1 | – | IC50 (HCT-116 [4]): 7100 nM |
| 3 | 195 | 6 | O=C(Nc1cccc2c1C(=O)c1c(-c3ccc(C(=O)N4CCCNCC4)s3)n[nH]c1-2)NN1CCOCC1 | – | IC50 (HCT-116 [4]): > 19700 nM |
| 22 | 52 | 25 | O=C(Nc1cccc2c1C(=O)c1c(-c3ccc(C(=O)N4CCCCC4)s3)n[nH]c1-2)NN1CCOCC1 | – | IC50 (HCT-116 [6]): 16800 nM |
| 5 | 230 | 11 | CNC1CCN(C(=O)c2ccc(-c3[nH]nc4c3C(=O)c3c(NC(=O)NN5CCOCC5)cccc3-4)s2)C1 (configuration not stated) | – | IC50 (HCT-116 [4]): 8500 nM |
| 21 | 64 | 7 | CN(C)NC(=O)Nc1cccc2c1C(=O)c1c(-c3csc(Cl)c3)n[nH]c1-2 | 615 | – |
| 7 | 35 | 10 | O=C(Nc1cccc2c1C(=O)c1c-2n[nH]c1-c1csc(Cl)c1)NN1CCOCC1 | 385 | – |
| 10 | 110 | 32 | CN1CCN(C(=O)c2ccc(-c3[nH]nc4c3C(=O)c3c(NC(=O)NN5CCOCC5)cccc3-4)s2)CC1 | 485 | IC50 (HCT-116 [6]): 9940 nM |
| 13 | 188 | 24 | CN(C)C1CCCN(C(=O)c2ccc(-c3[nH]nc4c3C(=O)c3c(NC(=O)NN5CCOCC5)cccc3-4)s2)C1 (configuration not stated) | – | IC50 (HCT-116 [6]): 11800 nM |
| 5 | 63 | 19 | CCN1CCN(C(=O)c2ccc(-c3[nH]nc4c3C(=O)c3c(NC(=O)NN5CCOCC5)cccc3-4)s2)CC1 | – | IC50 (HCT-116 [6]): 14300 nM |
| 12 | 64 | 44 | CN(C)C1CCN(C(=O)c2ccc(-c3[nH]nc4c3C(=O)c3c(NC(=O)NN5CCOCC5)cccc3-4)s2)C1 (configuration not stated) | 330 | IC50 (HCT-116 [4]): 2540 nM |
| 8 | 210 | 23 | CN(C)C1CCN(C(=O)c2ccc(-c3[nH]nc4c3C(=O)c3c(NC(=O)NN5CCOCC5)cccc3-4)s2)CC1 | 1000 | IC50 (HCT-116 [6]): > 15100 nM |
| 22 | 20 | 31 | O=C(Nc1cccc2c1C(=O)c1c(-c3ccc(C(=O)NCCN4CCCCC4)s3)n[nH]c1-2)NN1CCOCC1 | 255 | – |
| 4 | 19 | 15 | CN1CCCN(C(=O)c2ccc(-c3[nH]nc4c3C(=O)c3c(NC(=O)NN5CCOCC5)cccc3-4)s2)CC1 | 63 | IC50 (HCT-116 [4]): 870 nM |
| 17 | 53 | 23 | O=C(Nc1cccc2c1C(=O)c1c(-c3ccc(C(=O)N4CCCCCC4)s3)n[nH]c1-2)NN1CCOCC1 | – | IC50 (HCT-116 [4]): 8320 nM |
| 4 | 700 | 38 | O=C(Nc1cccc2c1C(=O)c1c(-c3ccc(C(=O)N4CCNCC4)s3)n[nH]c1-2)NN1CCOCC1 | – | IC50 (HCT-116 [6]): 15400 nM |
